Here are results for four compounds from patent US8293715B2, “10a-Azalide compound crosslinked at 10a- and 12-positions” (Taisho Pharmaceutical Co., Ltd., priority 2007, dated 2012).

Type in all cases: cell-based
In one test the test system is S. pneumoniae ATCC 49619. The test can be described thus: In vitro antibacterial activity, MIC by microbroth dilution method (CLSI method), test bacteria symbol B. As to conditions: Streptococcus pneumoniae, ATCC49619, read-out: MIC (minimum inhibitory concentration), test bacteria B. The method, then:
(§1) In vitro antibacterial activities of the compounds of the present invention against various test bacteria were measured according to the microbroth dilution method (CLSI method). As Comparative agent 1, clarithromycin was used, and the results for typical exemplary compounds are shown as MIC values (minimum inhibitory concentration, μg/ml) in Table 19.
Background: Broth dilution looks for growth in wells or tubes with falling amounts of substance.

The subject of test [1] is S. pneumoniae ATCC 700904. The test can be described thus: In vitro antibacterial activity, MIC by microbroth dilution method (CLSI method), test bacteria symbol C. As to conditions: Streptococcus pneumoniae, ATCC700904, read-out: MIC (minimum inhibitory concentration), test bacteria C. The method, then:
as §1

The subject of a further test is H. influenzae ATCC 43095. Nature of the test: In vitro antibacterial activity, MIC by microbroth dilution method (CLSI method), test bacteria symbol A. As to conditions: Haemophilus influenzae, ATCC43095, read-out: MIC (minimum inhibitory concentration), test bacteria A. As to the method: as §1

Converted amounts (≈) assume the structure as drawn.

In the case of `CC[C@H]1OC(=O)[C@H](C)[C@@H](O[C@H]2C[C@@](C)(OC)[C@@H](O)[C@H](C)O2)[C@H](C)[C@@H](O[C@@H]2O[C@H](C)C[C@H](N(C)C)[C@H]2O)[C@](C)(OC)C[C@@H](C)C(=O)[C@H](C)[C@@H](O)[C@]1(C)O` [Comparative agent 1, clarithromycin, reference compound], the MIC in the test on S. pneumoniae ATCC 49619 was 0.03 µg/mL (≈ 0.0401 µM); in test [1], > 128 µg/mL; with H. influenzae ATCC 43095 it was 4 µg/mL (≈ 5.35 µM).
Take `CO[C@@]1(C)C[C@@H](C)[C@H](O)[C@H](C)N2C[C@@H](COc3cccc(C(C)(C)C)c3)[C@H](C2)OC(=O)C(C)(Cl)C(=O)[C@H](C)[C@H]1O[C@@H]1O[C@H](C)C[C@H](N(C)C)[C@H]1O` (stereo partly drawn) [Example522]: the MIC is 8 µg/mL (≈ 10.8 µM) with S. pneumoniae ATCC 49619, > 16 µg/mL in test [1] and 16 µg/mL (≈ 21.6 µM) with H. influenzae ATCC 43095.
With `CO[C@]1(C)C[C@H](O[C@H]2[C@H](C)[C@@H](O[C@@H]3O[C@H](C)C[C@H](N(C)C)[C@H]3O)[C@@](C)(OC)C[C@@H](C)[C@H](O)[C@H](C)N3C[C@@H](COCc4ccccc4)[C@H](C3)OC(=O)[C@@H]2C)O[C@@H](C)[C@@H]1O` [Example523], the MIC in the test on S. pneumoniae ATCC 49619 was 0.12 µg/mL (≈ 0.146 µM); in test [1], > 128 µg/mL; in the test on H. influenzae ATCC 43095, 4 µg/mL (≈ 4.86 µM).
For the compound `CO[C@]1(C)C[C@H](O[C@H]2[C@H](C)[C@@H](O[C@@H]3O[C@H](C)C[C@H](N(C)C)[C@H]3O)[C@@](C)(OC)C[C@@H](C)[C@H](O)[C@H](C)N3CCC[C@@H](C3)OC(=O)[C@@H]2C)O[C@@H](C)[C@@H]1O` [Example525], the MIC with S. pneumoniae ATCC 49619 is 0.25 µg/mL (≈ 0.349 µM); in test [1], > 128 µg/mL; in the test on H. influenzae ATCC 43095, 0.5 µg/mL (≈ 0.697 µM).
